For one assay, the target named is T1, FAAH (Rattus norvegicus, UniProt P97612).
T1 sequence (P97612 1-579): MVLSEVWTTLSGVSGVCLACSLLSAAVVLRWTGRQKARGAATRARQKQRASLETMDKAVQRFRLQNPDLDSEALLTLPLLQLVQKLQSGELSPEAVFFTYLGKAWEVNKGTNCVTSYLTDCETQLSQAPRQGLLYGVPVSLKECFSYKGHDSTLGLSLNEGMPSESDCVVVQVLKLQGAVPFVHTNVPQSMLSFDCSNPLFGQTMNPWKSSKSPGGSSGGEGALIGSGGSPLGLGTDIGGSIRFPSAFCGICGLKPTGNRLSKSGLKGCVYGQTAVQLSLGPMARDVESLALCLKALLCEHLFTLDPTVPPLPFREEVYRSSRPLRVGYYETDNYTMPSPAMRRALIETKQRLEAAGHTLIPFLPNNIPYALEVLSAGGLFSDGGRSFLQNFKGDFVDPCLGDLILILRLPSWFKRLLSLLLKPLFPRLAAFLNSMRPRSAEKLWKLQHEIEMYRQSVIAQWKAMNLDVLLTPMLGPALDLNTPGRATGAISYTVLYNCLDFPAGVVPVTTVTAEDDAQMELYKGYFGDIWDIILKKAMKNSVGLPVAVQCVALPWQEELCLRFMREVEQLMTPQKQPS
The experiment in a line: biochemical. Details: from tissue; host or cells: rat brain (membrane fraction of homogenate; Wistar rats). It counts as biochemical.

In assay [1] the target is electric eel acetylcholinesterase (Electrophorus electricus, UniProt O42275). The assay can be described thus: biochemical.
Sequence of electric eel acetylcholinesterase (O42275 whole entry): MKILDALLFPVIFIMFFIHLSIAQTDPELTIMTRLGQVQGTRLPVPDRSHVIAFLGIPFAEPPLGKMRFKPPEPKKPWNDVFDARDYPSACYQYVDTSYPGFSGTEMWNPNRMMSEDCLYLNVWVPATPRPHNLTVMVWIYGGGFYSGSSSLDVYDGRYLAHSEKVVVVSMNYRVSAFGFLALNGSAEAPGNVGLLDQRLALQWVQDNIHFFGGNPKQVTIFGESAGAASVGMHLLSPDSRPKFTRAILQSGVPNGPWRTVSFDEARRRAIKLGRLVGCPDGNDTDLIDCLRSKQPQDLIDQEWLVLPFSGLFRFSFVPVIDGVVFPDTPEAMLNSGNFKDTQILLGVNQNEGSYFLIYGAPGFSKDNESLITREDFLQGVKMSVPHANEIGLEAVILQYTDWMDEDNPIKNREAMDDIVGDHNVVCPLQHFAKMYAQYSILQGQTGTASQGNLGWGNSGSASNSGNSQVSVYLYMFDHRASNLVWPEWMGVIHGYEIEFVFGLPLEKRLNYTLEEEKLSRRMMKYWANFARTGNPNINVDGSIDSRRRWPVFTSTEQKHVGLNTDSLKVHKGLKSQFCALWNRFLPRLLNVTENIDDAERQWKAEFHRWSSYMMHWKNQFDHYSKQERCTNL
Text: We prepared cell fractions from rat brain homogenates, and assayed membrane FAAH activity and cytosol MGL activity using anandamide [ethanolamine-3H] (American Radiolabeled Chemicals, ARC (St. Louis Mo.), 60 Ci/mmol) and 2-mono-oleoyl-glycerol-[glycerol-1,2,3^−3H] (ARC, St. Louis Mo., 20 Ci/mmol), respectively, as substrates (Dinh, T. Proc. Natl. Acad. Sci. U.S.A. (2002)). We conducted [^3H]anandamide transport assays in human astrocytoma cells (Piomelli, D. et al., Proc. Natl. Acad. Sci. U.S.A., 96, 5802-5807 (1999)); CB1 and CB2 binding assays in rat cerebellar membranes and CB2-overexpressing Chinese hamster ovary cells (Receptor Biology-Perkin Elmer, Wellesley, Mass.), respectively, using [^3H]WIN-55212-2 (NEN-Dupont, Boston, Mass., 40-60 Ci/mmol) as a ligand (Devane, W. A. et al. Science, 258, 1946-1949 (1992)); cholinesterase assays with a commercial kit (Sigma, St. Louis, Mo.), using purified enzymes (electric eel acetylcholinesterase type V-S and horse serum cholinesterase; both from Sigma, St. Louis, Mo.) and following manufacturer's instructions.
Where [2] appears, read: Table 4, FAAH IC50, read-out: Inhibition of Amidohydrolase IC50.
Setting [3] is: Table 5, rat brain membranes, [3H]anandamide, read-out: IC50 (nM) ± S.E.M.
[4] abbreviates: Table 6, meta-substituted derivatives, read-out: pIC50 obsd (converted).
Where [5] appears, read: Table 3, read-out: Amidohydrolase IC50.
Setting [6] is: Table 1, rat brain membranes, mean of at least three experiments, read-out: IC50.
Setting [7] is: Inhibition of Amidohydrolase IC50(μM).

Structures can show the parent of a compound that is named as a salt. Where two headings read alike, the source gives them in different places.

As for `CCNC(=O)OCC12CC3CC(CC(C3)C1)C2` [#31], the IC50 on FAAH (setting [2]) is over 30000 nM.
As to `CCCCCc1cccc(OC(=O)NC2CCCCC2)c1` [#33], the IC50 at FAAH (setting [2]) came to 220 nM.
In the case of `O=C(NC1CCCCC1)Oc1cccc(-c2cccc(-c3ccccc3)c2)c1` [#34], the IC50 at FAAH (setting [2]) is 560 nM.
Still for that read-out and setting: with `O=C(NC1CCCCC1)Oc1cccc(-c2cccc(Oc3ccccc3)c2)c1` [#35] the figure was 2600 nM; with `O=C(NC1CCCCC1)Oc1ccc2ccn(-c3ccccc3)c2c1` [#36], 1400 nM.
On FAAH (IC50 (nM) ± S.E.M.), `O=C(NC1CCCCC1)Oc1cccc(-c2ccc(C(F)(F)F)cc2)c1` [Compound 3a] registered an IC50 of 1590 nM.
On to `Cc1ccc(-c2cccc(OC(=O)NC3CCCCC3)c2)cc1` [Compound 3b], for which the IC50 on FAAH (setting [3]) turned out to be 155 ± 21 nM.
The same measure, in the same setting: with `NC(=O)c1ccc(-c2cccc(OC(=O)NC3CCCCC3)c2)cc1` [Compound 3c] the figure was 5910 nM.
On FAAH (IC50 (nM) ± S.E.M.), `Nc1ccc(-c2cccc(OC(=O)NC3CCCCC3)c2)cc1` [Compound 3d] showed an IC50 of 360 ± 59 nM.
In the case of `O=C(NC1CCCCC1)Oc1cccc(-c2ccc(F)cc2)c1` [Compound 3e], on FAAH (setting [3]), the IC50 turned out to be 65 ± 14 nM. Further, the “inhibition of FAAH activity (in words)” value against FAAH (rat brain membranes) is reported as “comparable IC50 value”.
`O=C(NC(=O)c1ccc(-c2cccc(OC(=O)NC3CCCCC3)c2)cc1)NC1CCCCC1` [Compound 3f] had an IC50 on FAAH (IC50 (nM) ± S.E.M.) of 3020 nM.
Take `O=C(NC1CCCCC1)Oc1cccc(-c2cccc(C(F)(F)F)c2)c1` [Compound 3g]: the IC50 on FAAH (IC50 (nM) ± S.E.M.) is 146 ± 16 nM; against FAAH (pIC50 obsd), 145 nM.
Take `Cc1cccc(-c2cccc(OC(=O)NC3CCCCC3)c2)c1` [Compound 3h]: the IC50 is 61.7 ± 19 nM on FAAH (setting [3]) and 61.7 nM at FAAH (setting [4]). Moreover, the “inhibition of FAAH activity (in words)” value against FAAH (rat brain membranes) was “as potent as the parent compound”.
As for `Nc1cccc(-c2cccc(OC(=O)NC3CCCCC3)c2)c1` [Compound 3j], the “inhibition of FAAH activity (in words)” value on FAAH is “as potent as the parent compound”. Also, the IC50 at FAAH (IC50 (nM) ± S.E.M.) is 64.6 ± 9 nM; against FAAH (pIC50 obsd), 64.6 nM.
Turning to `O=C(NC1CCCCC1)Oc1cccc(-c2cccc(F)c2)c1` [Compound 3k], the IC50 was 96.6 ± 4 nM at FAAH (setting [3]) and 95.5 nM at FAAH (setting [4]).
On the same counts, the results for `O=C(NC1CCCCC1)Oc1cccc(-c2cccc(OC(=O)NC3CCCCC3)c2)c1` [Compound 3l] are 361 ± 137 nM and 363 nM.
On the same counts, the results for `O=C(NC1CCCCC1)Oc1cccc(-c2cccc(Oc3ccccc3)c2)c1` [Compound 3m] are 420 ± 86 nM and 417 nM.
On the same counts, the results for `O=C(NC1CCCCC1)Oc1cccc(-c2cccc(-c3ccccc3)c2)c1` [Compound 3n] are 565 ± 42 nM and 562 nM.
With `O=C(NC1CCCCC1)Oc1cccc(-c2cccc(Cc3ccccc3)c2)c1` [Compound 3o], the IC50 at FAAH (setting [3]) and on FAAH (setting [4]) was 1860 nM each time.
Take `CCCc1cccc(-c2cccc(OC(=O)NC3CCCCC3)c2)c1` [Compound 3p]: the IC50 against FAAH (IC50 (nM) ± S.E.M.) is 110 ± 16 nM; on FAAH (pIC50 obsd) it was 110 nM.
Take `O=C(NC1CCCCC1)Oc1cccc(-c2cccc([N+](=O)[O-])c2)c1` [Compound 3q]: the results for the IC50 at FAAH (setting [3]) and at FAAH (setting [4]) were 49.6 ± 2 nM and 50.1 nM, respectively.
On the same counts, the results for `NS(=O)(=O)c1cccc(-c2cccc(OC(=O)NC3CCCCC3)c2)c1` [Compound 3r] are 26.5 ± 4.5 nM and 26.3 nM.
On the same counts, the results for `CC(=O)c1cccc(-c2cccc(OC(=O)NC3CCCCC3)c2)c1` [Compound 3s] are 9.1 ± 0.5 nM and 9.12 nM.
On the same counts, the results for `N#Cc1cccc(-c2cccc(OC(=O)NC3CCCCC3)c2)c1` [Compound 3t] are 33.9 ± 7 nM and 33.9 nM.
Regarding `O=C(NC1CCCCC1)Oc1cccc(-c2cccc(O)c2)c1` [Compound 3u], the IC50 on FAAH (IC50 (nM) ± S.E.M.) is 8.65 ± 0.1 nM; against FAAH (pIC50 obsd), 8.71 nM.
`O=C(NC1CCCCC1)Oc1cccc(-c2cccc(CO)c2)c1` [Compound 3v]: the results for the IC50 at FAAH (setting [3]) and on FAAH (setting [4]) were 8.67 ± 0.9 nM and 8.71 nM, respectively.
In the same order, the values of `O=C(NC1CCCCC1)Oc1cccc(-c2cccc(CCO)c2)c1` [Compound 3w] are 18.7 ± 4.5 nM and 18.6 nM.
`NCc1cccc(-c2cccc(OC(=O)NC3CCCCC3)c2)c1` [Compound 3z] had an IC50 at FAAH (IC50 (nM) ± S.E.M.) of 21200 nM.
For `O=C(Oc1ccccc1)N1CCCCC1` [PL#1, 1-phenyl-N-piperidinecarboxylate], the IC50 (in assay [1]; on FAAH (setting [5]); at FAAH (setting [2])) was over 30000 nM throughout.
Turning to `CCCCNC(=O)Oc1ccc2cc(Br)ccc2c1` [PL#3, 6-bromo-2-naphtyhyl N-butylcarbamate], the IC50 was over 30000 nM in assay [1], 760 nM at FAAH (setting [5]) and 760 nM at FAAH (setting [2]).
In the case of `CNC(=O)Oc1ccc2ccccc2c1` [PL#4, 2-naphtyl-N-methylcarbamate], the IC50 was over 30000 nM in assay [1]; 18600 nM on FAAH (setting [6]); 18700 nM at FAAH (setting [5]); 18600 nM on FAAH (setting [2]); 18600 ± 700 nM at FAAH (rat brain membranes, mean±SEM, n=3, read-out: IC50).
Consider `CNC(=O)Oc1ccc2c(c1)[C@@]1(C)CCN(C)[C@H]1N2C` [PL#16, (−)-Physostigmine sulfate, reference compound], for which the IC50 at FAAH (setting [5]) and at FAAH (setting [2]) was over 30000 nM throughout.
Regarding `CC1=CC(C)(C)N(C(=O)NC2CCCCC2)c2cc(C)c(C)cc21` [PL#19], on FAAH (setting [2]), the IC50 was over 30000 nM.
Regarding `O=C(Nc1cccc2ccccc12)NC1CCCCC1` [PL#20], the IC50 at FAAH (setting [2]) was over 30000 nM.
On the same count and under the same terms, with `O=C(Nc1ccc(Cl)cc1)NC1CCCCC1` [PL#21] the figure was over 30000 nM.
Still for that read-out and setting: the figure for `O=C(Nc1ccc2ccccc2c1)N1CCCCC1` [PL#22] is over 30000 nM.
Still for that read-out and setting: the figure for `CCCCNC(=O)Nc1cccc2ccccc12` [PL#23] is over 30000 nM.
`O=C(NC1CCCCC1)Oc1ccc(/C=C/c2ccccc2)cc1` [PL#24]: on FAAH (read-out: Inhibition of Amidohydrolase IC50), the IC50 worked out at 3300 nM.
In the case of `O=C(NC1CCCCC1)Oc1ccc(/C=C\c2ccccc2)cc1` [PL#25], on FAAH (setting [7]), the IC50 worked out at 240 nM.
`O=C(NC1CCCCC1)Oc1ccc2cccc(Br)c2c1` [PL#27]: at FAAH (setting [2]), the IC50 came out at 170 nM.
On FAAH (setting [7]), `CCc1ccc2cc(OC(=O)NC3CCCCC3)ccc2c1` [PL#28] displayed an IC50 of 3000 nM.
As to `Cc1ccc(-c2cccc(OC(=O)NC3CCCCC3)c2)cc1` [PL#37], the IC50 on FAAH (setting [2]) is 230 nM.
Regarding `O=C(NC1CCCCC1)Oc1cccc(-c2ccc(C(F)(F)F)cc2)c1` [PL#38], the IC50 against FAAH (setting [7]) was determined as 1600 nM.
Still for that read-out and setting: with `Nc1ccc(-c2cccc(OC(=O)NC3CCCCC3)c2)cc1` [PL#39] the figure was 510 nM.
Consider `NC(=O)c1ccc(-c2cccc(OC(=O)NC3CCCCC3)c2)cc1` [PL#40], for which the IC50 on FAAH (setting [2]) is over 10000 nM.
Still for that read-out and setting: the figure for `O=C(NC1CCCCC1)Oc1cccc(-c2ccc(F)cc2)c1` [PL#41] is 90 nM.
On FAAH (setting [7]), `O=C(NC(=O)c1ccc(-c2cccc(OC(=O)NC3CCCCC3)c2)cc1)NC1CCCCC1` [PL#42] displayed an IC50 of about 30000 nM.
Turning to `Cc1cccc(-c2cccc(OC(=O)NC3CCCCC3)c2)c1` [PL#43], at FAAH (setting [2]), the IC50 is 100 nM.
As for `O=C(NC1CCCCC1)Oc1cccc(-c2cccc(C(F)(F)F)c2)c1` [PL#44], at FAAH (setting [7]), the IC50 was found to be 130 nM.
The same measure, in the same setting: with `Nc1cccc(-c2cccc(OC(=O)NC3CCCCC3)c2)c1` [PL#45] the figure was 60 nM.
As to `O=C(NC1CCCCC1)Oc1cccc(-c2cccc(F)c2)c1` [PL#47], at FAAH (setting [2]), the IC50 was 92 nM.
Same read-out and setting: with `Cc1ccc(OC(=O)NC2CCCCC2)cc1-c1ccccc1` [PL#48] the figure was 200 nM; with `NC(=O)c1ccc(OC(=O)NC2CCCCC2)cc1-c1ccccc1` [PL#49], 200 nM.
Still for that read-out and setting: the figure for `O=C(NC(=O)c1ccc(OC(=O)NC2CCCCC2)cc1-c1ccccc1)NC1CCCCC1` [PL#50] is 3100 nM.
`O=C(NC1CCCCC1)Sc1ccc2ccccc2c1` [PL#52] gave an IC50 at FAAH (setting [7]) of 15000 nM.
As for `O=C(Nc1ccccc1)OC1CCCCC1` [PL#56], the IC50 at FAAH (setting [2]) is 3100 nM.
Consider `Cc1cccc(NC(=O)OC2CCCCC2)c1` [PL#57], for which the IC50 at FAAH (setting [2]) was found to be 800 nM.
As for `O=C(NC1CCCCC1)Oc1ccc([N+](=O)[O-])c(-c2ccccc2)c1` [PL#58], the IC50 on FAAH (setting [2]) was over 30000 nM.
On the same count and under the same terms, with `Nc1ccc(OC(=O)NC2CCCCC2)cc1-c1ccccc1` [PL#59] the figure was 50 nM; with `O=C(NC1CCCCC1)Oc1cc(-c2ccccc2)ccc1[N+](=O)[O-]` [PL#60], over 30000 nM; with `Nc1ccc(-c2ccccc2)cc1OC(=O)NC1CCCCC1` [PL#61], over 30000 nM.
In turn, `CCCc1cccc(-c2cccc(OC(=O)NC3CCCCC3)c2)c1` [PL#62] returned an IC50 on FAAH (setting [7]) of 80 nM.
In the case of `O=C(NC1CCCCC1)Oc1cccc(-c2ccccc2)c1` [URB524, cyclohexylcarbamic acid biphenyl-3-yl ester], the IC50 on FAAH (setting [6]) is 63 nM; at FAAH (setting [2]) it was 60 nM; at FAAH (setting [3]) it was 63 ± 9 nM; at FAAH (rat brain membranes, read-out: IC50), 63 ± 9 nM. Besides, on FAAH (Table 6, meta-substituted derivatives), the pIC50 obsd is recorded as 7.20.

(Values after US20040127518A1, “Modulation of anxiety through blockade of anandamide hydrolysis” (priority 2002, published 2004).)
